# Test results from patent publication US6903086B2, “Alkoxycarbonylamino benzoic acid or alkoxycarbonylamino tetrazolyl phenyl derivatives as IP antagonists” (SYNTEX (U.S.A.) LLC, priority 2001, dated 2005).
row,Compound,melting point [°C]
1,"O=C(Nc1ccccc1-c1nnn[nH]1)OCc1cc2cc(-c3ccc(F)cc3)ccc2o1 [compound 503, [2-(1H-tetrazol-5-yl)-phenyl]-carbamic acid 5-(4-fluoro-phenyl)-benzofuran-2-ylmethyl ester]",155 to 158
2,"O=C(Nc1ccc(-c2ccccc2)cc1C(=O)O)OCc1cc2cc(-c3ccc(F)cc3)ccc2o1 [compound 15, 4-[5-(4-fluoro-phenyl)-benzofuran-2-ylmethoxycarbonylamino]-biphenyl-3-carboxylic acid]",231.3 to 231.6
3,"O=C(Nc1ccc(-c2ccc(F)cc2)cc1C(=O)O)OCc1cc2cc(-c3ccccc3)ccc2o1 [compound 12, 4′-fluoro-4-(5-phenyl-benzofuran-2-ylmethoxycarbonylamino)-biphenyl-3-carboxylic acid]",229.4 to 229.6
4,"O=C(Nc1cc(C(=O)O)cc(-c2ccccc2)c1)OCc1cc2cc(-c3ccccc3)ccc2o1 [compound 401, 5-(5-phenyl-benzofuran-2-ylmethoxycarbonylamino)-biphenyl-3-carboxylic acid]",235.7 to 238.9
5,"O=C(Nc1ccc(-c2ccccc2)cc1C(=O)O)OCc1ccc(-c2ccccc2)cc1 [compound 601, 4-(biphenyl-4-ylmethoxycarbonylamino)-biphenyl-3-carboxylic acid]",234.5 to 235.6
6,"O=C(Nc1ccccc1-c1nnn[nH]1)OCc1cc2cc(-c3ccccc3)ccc2o1 [compound 508, [2-(1H-tetrazol-5-yl)-phenyl]-carbamic acid 5-phenyl-benzofuran-2-ylmethyl ester]",213 to 216.5
7,"Cc1ccc(NC(=O)OCc2cc3cc(-c4ccc(F)cc4)ccc3o2)c(C(=O)O)c1 [compound 28, 2-[5-(4-fluoro-phenyl)-benzofuran-2-ylmethoxycarbonylamino]-5-methyl-benzoic acid]",190.8 to 191.9
8,"O=C(Nc1ccc(-c2ccccc2)cc1C(=O)O)OCc1cc2cc(-c3ccccc3)ccc2o1 [compound 10, 4-(5-phenyl-benzofuran-2-ylmethoxycarbonylamino)-biphenyl-3-carboxylic acid]",225.9 to 226.2
9,"O=C(Nc1ccc(F)cc1-c1nnn[nH]1)OCc1cc2cc(-c3ccc(F)cc3)ccc2o1 [compound 506, [4-fluoro-2-(1H-tetrazol-5-yl)-phenyl]-carbamic acid 5-(4-fluoro-phenyl)-benzofuran-2-ylmethyl ester]",121 to 125.2
10,"Cc1ccc(NC(=O)OCc2cc3cc(-c4cccnc4)ccc3o2)c(C(=O)O)c1 [compound 35, 5-methyl-2-(5-pyridin-3-yl-benzofuran-2-ylmethoxycarbonylamino)-benzoic acid]",200.1 to 200.4
11,"O=C(Nc1cccc(Br)c1C(=O)O)OCc1cc2cc(-c3ccc(F)cc3)ccc2o1 [compound 42, 2-bromo-6-[5-(4-fluoro-phenyl)-benzofuran-2-ylmethoxycarbonylamino]-benzoic acid]",170.6 to 172
12,"O=C(Nc1cc(-c2ccccc2)ccc1C(=O)O)OCc1cc2cc(-c3ccccc3)ccc2o1 [compound 11, 3-(5-phenyl-benzofuran-2-ylmethoxycarbonylamino)-biphenyl-4-carboxylic acid]",229.5 to 230
13,"O=C(Nc1cccc(Cl)c1C(=O)O)OCc1cc2cc(-c3ccnnc3)ccc2o1 [compound 40, 2-chloro-6-(5-pyridazin-4-yl-benzofuran-2-ylmethoxycarbonylamino)-benzoic acid]",179 to 182.2
